Results from PMC9709406 (Frontiers in Pharmacology, 2022).
Where two headings read alike, the source gives them in different places.

Legend:
[1] = system: H1650 cells; assay: MTT assay for cell proliferation and cytotoxicity, H1650; format: cell-based; settings: Homo sapiens, NCI-H1650, 48 h, H1650, n = 5
In short: (§1)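 Absorbance at 490 nm after 1–4 h MTT incubation gave viability of cells exposed 48 h to test compound (0–50 μM; vehicle 0.1% DMSO). Seeding was 2,200–2,500 cells/well, one day before dosing, in RPMI-1640/10% FBS at 37 °C, 5% CO2.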

[2] = system: H1975 cells; assay: MTT assay for cell proliferation and cytotoxicity, H1975; format: cell-based, human; settings: MTT, 48 h, H1975, n = 5, read-out: IC50 48 h H1975
In short: as §1

[3] = system: H1650TR cells; assay: MTT assay, taxol-resistant H1650TR; format: cell-based; settings: Homo sapiens, NCI-H1650, 48 h, value in parentheses in H1650 column
Excerpt: (§2) The human cancer cells (H1650, H1975, KYSE70, KYSE410 and KYSE450) were purchased from the Type Culture Collection of the Chinese Academy of Sciences (Shanghai, China). The human immortalized normal esophageal epithelial cell line SHEE was donated by Dr. Enmin Li from the Laboratory of Tumor Pathology (Shantou University Medical College, Shantou, Guangdong, China). Drug-resistant cells (H1650TR, H1975OR, KYSE70TR, KYSE410TR and KYSE450TR) were induced by China-US (Henan) Hormel Cancer Institute. The cellswere cultured in RPMI-1640 complete growth medium containing 100 U/mL penicillin-streptomycin and 10% FBS. Based on the above medium formula, 100 nm/L paclitaxel was added in taxol-resistant cells, 100 nm/L gefitinib was added in gefitinib-resistant cells. The cells were incubated at 37 °C in an atmosphere containing 5% of CO2. The compounds were dissolved in DMSO to make a 50 mM stock solution and were diluted to the concentration of working solutions with complete growth medium before administration.
(§3) Cells were seeded in 96-well plates with 2,200–2,500 cells/well in100 μL. One day after seeding, test compounds with the concentration between 0 and 50 μM were added with 0.1% DMSO as control. Five multiple wells for each concentration. After 48 h, MTT was added and incubated in the plate for 1–4 h in the incubator. The absorbance at 490 nm was measured using a microplate reader (Thermo).

[4] = system: H1975OR cells; assay: MTT assay, osimertinib-resistant H1975OR; format: cell-based; settings: Homo sapiens, NCI-H1975, 48 h, osimertinib-resistant H1975OR, value in parentheses in H1975 column, read-out: IC50 48 h H1975OR (data in parentheses) (converted)
Excerpt: as §2
as §3, with “After 48 h, MTT was added and incubated in the plate for 1–4 h in the incubator.” left out

[5] = system: SHEE cells; assay: MTT assay, normal esophageal epithelial cell line SHEE; format: cell-based; settings: Homo sapiens, 48 h, n = 5
In short: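 Growth inhibition is measured by MTT reduction (A490) following 48 h treatment across 0–50 μM compound, with 0.1% DMSO as control. Taxol-resistant sublines are cultured in medium carrying 100 nm/L paclitaxel.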

[6] = system: KYSE70 cells; assay: MTT assay, KYSE70; format: cell-based, human; settings: Homo sapiens, KYSE-70; MTT, 48 h, KYSE70, n = 5
In short: as §1

[7] = system: KYSE410 cells; assay: MTT assay, KYSE410; format: cell-based, human; settings: Homo sapiens, KYSE-410; MTT, 48 h, KYSE410, n = 5; read-out: IC50 48 h KYSE410
In short: as §1

[8] = system: KYSE450 cells; assay: MTT assay, KYSE450; format: cell-based, human; settings: Homo sapiens, KYSE-450; MTT, 48 h, KYSE450, n = 5; read-out: IC50 48 h KYSE450
In short: as §1

[9] = system: KYSE70TR cells; assay: MTT assay, taxol-resistant KYSE70TR; format: cell-based, human; settings: Homo sapiens; MTT, 48 h, taxol-resistant KYSE70TR, value in parentheses; read-out: IC50 48 h KYSE70TR (data in parentheses) (converted)
Excerpt: as §2
as §3, with “After 48 h, MTT was added and incubated in the plate for 1–4 h in the incubator.” left out

[10] = system: KYSE410TR cells; assay: MTT assay, taxol-resistant KYSE410TR; format: cell-based, human; settings: Homo sapiens; MTT, 48 h, taxol-resistant KYSE410TR, value in parentheses; read-out: IC50 48 h KYSE410TR (data in parentheses) (converted)
Excerpt: as §2
as §3, with “After 48 h, MTT was added and incubated in the plate for 1–4 h in the incubator.” left out

[11] = system: KYSE450TR cells; assay: MTT assay, taxol-resistant KYSE450TR; format: cell-based, human; settings: Homo sapiens; MTT, 48 h, taxol-resistant KYSE450TR, value in parentheses; read-out: IC50 48 h KYSE450TR (data in parentheses) (converted)
Excerpt: as §2
as §3, with “After 48 h, MTT was added and incubated in the plate for 1–4 h in the incubator.” left out

[12] = target: T1, EGFR (Homo sapiens, UniProt P00533); assay: EGFR kinase assay (ELISA); format: biochemical; settings: 25°C
T1 construct: purchased Active MOTIF
T1 sequence (P00533 25-1210): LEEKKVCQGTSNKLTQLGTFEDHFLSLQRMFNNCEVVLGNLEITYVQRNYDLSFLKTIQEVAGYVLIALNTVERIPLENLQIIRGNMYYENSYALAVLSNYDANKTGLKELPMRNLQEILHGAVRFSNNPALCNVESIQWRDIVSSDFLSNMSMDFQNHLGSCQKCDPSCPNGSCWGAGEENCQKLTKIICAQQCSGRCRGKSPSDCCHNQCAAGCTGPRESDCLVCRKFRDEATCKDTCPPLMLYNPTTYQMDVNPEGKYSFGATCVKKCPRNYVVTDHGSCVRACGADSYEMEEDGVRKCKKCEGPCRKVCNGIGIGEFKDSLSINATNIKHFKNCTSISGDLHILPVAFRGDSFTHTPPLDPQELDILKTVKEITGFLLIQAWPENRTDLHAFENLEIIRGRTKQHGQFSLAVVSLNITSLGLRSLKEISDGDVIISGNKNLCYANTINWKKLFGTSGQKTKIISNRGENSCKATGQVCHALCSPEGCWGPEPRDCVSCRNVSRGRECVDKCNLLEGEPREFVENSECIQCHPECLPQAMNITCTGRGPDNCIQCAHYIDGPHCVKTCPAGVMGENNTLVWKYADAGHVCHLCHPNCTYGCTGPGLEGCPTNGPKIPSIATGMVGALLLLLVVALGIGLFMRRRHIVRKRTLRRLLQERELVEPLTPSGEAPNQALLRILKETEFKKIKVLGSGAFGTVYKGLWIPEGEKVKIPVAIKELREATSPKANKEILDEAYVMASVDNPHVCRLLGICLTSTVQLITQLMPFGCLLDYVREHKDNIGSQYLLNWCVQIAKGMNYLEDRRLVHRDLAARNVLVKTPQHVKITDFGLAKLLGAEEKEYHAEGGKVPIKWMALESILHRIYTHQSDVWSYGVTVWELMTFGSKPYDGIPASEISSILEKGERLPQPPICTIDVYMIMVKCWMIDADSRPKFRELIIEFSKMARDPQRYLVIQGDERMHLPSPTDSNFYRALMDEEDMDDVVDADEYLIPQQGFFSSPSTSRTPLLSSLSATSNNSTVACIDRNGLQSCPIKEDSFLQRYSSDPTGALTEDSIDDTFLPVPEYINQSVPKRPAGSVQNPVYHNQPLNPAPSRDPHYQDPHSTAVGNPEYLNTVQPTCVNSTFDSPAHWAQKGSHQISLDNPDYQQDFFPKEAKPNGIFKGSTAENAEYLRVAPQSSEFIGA
Experimental: Kinase inhibitory activities of the compounds were evaluated using the Protein Tyrosine Kinase Assay Kit (SignalChem (British Columbia, Canada)). The kinase enzyme of EGFR was purchased from Active MOTIF. The ELISA experiments were carried out according the instructions of the kit. Active kinases were incubated with indicated compounds in 1 × reaction buffer containing 20 μM substrate at 25°C for 1 h and 2 h, respectively. The absorbance was read with a multimode plate reader (PerkinElmer, United States) at 450 nm.

[13] = system: KYSE450 cells; assay: Annexin V/PI flow cytometry for apoptosis, KYSE450; format: cell-based, human; settings: 48 h
Experimental: (§4) Cell-apoptosis analysis was carried out by flow cytometry using the Annexin V/PI apoptosis methods. […] Cells were harvested and incubated with 250 μL of 1 × Annexin V binding buffer containing 5 μL PI and 5 μL FITC Annexin V (final concentration 1.8 μg/ml, Biolegend (cat: 640945) for 15 min at room temperature in dark. 200 µL of 1 × binding buffer was added for flow cytometry analysis (BD FACSCalibur™ Flow Cytometer).

[14] = system: KYSE450TR cells; assay: Annexin V/PI flow cytometry for apoptosis, KYSE450TR; format: cell-based, human; settings: 48 h
Experimental: as §4

[15] = system: KYSE450 cells; assay: Cell cycle analysis by flow cytometry, KYSE450; format: cell-based, human; settings: KYSE450, 24 h; icotinib at 2 μM, 3l at 8 μM
Experimental: (§5) KYSE450/KYSE450TR cells were plated in 6-well plates with a density of 1×10^5 cells/well and cultured overnight. […] Trypsinization treatment and the cells were collected by centrifugation. The cell pellet was re-suspended in 70% ethanol at −20°C for at least 3 h. The cells were washed with PBS and were re-suspended in 250 μL of 0.6% tricine with Renease A for 1 h, then stained in PI (final concentration 1.8 μg/ml, Biolegend cat: 640945) for 15 min in dark. Cells were retransferred to the BD FACSCalibur™ Flow Cytometer. All analyses were performed with FlowJo software v105.3.6.

[16] = system: KYSE450TR cells; assay: Cell cycle analysis by flow cytometry, KYSE450TR; format: cell-based, human; settings: 24 h, icotinib at 8 μM, 3l at 8 μM
Experimental: as §5

[17] = target: T2, EGFR wild protein (H672-A1210) (Homo sapiens, UniProt P00533); assay: EGFR protein affinity determined with SPR; format: binding; settings: immobilized wild-type EGFR
T2 construct: purchased Active MOTIF 31165
T2 sequence (P00533 672-1210): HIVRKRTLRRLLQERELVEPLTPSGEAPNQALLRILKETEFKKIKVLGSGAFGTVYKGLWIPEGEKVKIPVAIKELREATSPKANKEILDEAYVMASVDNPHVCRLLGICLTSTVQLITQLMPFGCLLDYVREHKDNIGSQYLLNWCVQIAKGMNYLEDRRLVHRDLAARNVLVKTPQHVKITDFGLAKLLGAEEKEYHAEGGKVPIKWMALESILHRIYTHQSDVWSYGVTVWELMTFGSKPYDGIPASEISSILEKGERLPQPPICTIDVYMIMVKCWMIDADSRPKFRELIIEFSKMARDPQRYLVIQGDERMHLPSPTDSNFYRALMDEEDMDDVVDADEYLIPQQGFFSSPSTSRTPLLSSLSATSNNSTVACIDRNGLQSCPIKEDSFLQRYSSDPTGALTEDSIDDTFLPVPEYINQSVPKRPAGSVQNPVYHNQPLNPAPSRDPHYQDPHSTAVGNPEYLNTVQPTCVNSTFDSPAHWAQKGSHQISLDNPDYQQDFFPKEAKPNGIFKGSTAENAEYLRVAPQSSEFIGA
Experimental: Firstly, EGFR protein (protein concentration : 0.468 μg/μL, Active MOTIF, cat: 31165, lot: 28215004) was covalently immobilized onto a CM5 sensor chip at densities of 2000 response units. […] During the drug-protein interaction, the change of the refractive index was measured in real-time which would allow the plotting of the results of interaction as response units versus time. The interaction results were analyzed under a BIA evaluation 3.0 software.

C#Cc1cccc(Nc2ncnc3cc4c(cc23)OCCOCCOCCO4)c1 [icotinib, reference compound]
IC50 [1]: > 50 µM
IC50 ([2]; Homo sapiens, NCI-H1975, 48 h): > 50 µM
IC50 [2]: 48.3 ± 2.13 µM
IC50 [3]: > 50 µM
IC50 [4]: > 50 µM
IC50 [5]: 19.2 ± 1.29 µM
IC50 [6]: > 50 µM
IC50 [7]: > 50 µM
IC50 [8]: 30.4 ± 1.96 µM
IC50 [9]: > 50 µM
IC50 [10]: > 50 µM
IC50 [11]: > 50 µM
IC50 ([12]; incubation 1 h, read-out: IC50 EGFR 1 h): 0.00138 µM
IC50 ([12]; incubation 2 h, read-out: IC50 EGFR 2 h): 0.038 µM
proportion of apoptotic cells ([13]; KYSE450, 2 μM): 7.84%
proportion of apoptotic cells ([13]; KYSE450, 4 μM): 12.25%
proportion of apoptotic cells ([14]; 5 μM): 8.51%
proportion of apoptotic cells ([14]; 10 μM): 10.43%
cell cycle phase in which cells were arrested [15]: G1 phase
cell cycle phase in which cells were arrested [16]: G1 phase
Rmax(RU) [17]: 15.74 RU
Kd ([17]; 25°C): 36.1 µM
